From publication PMC4919066 (PLoS Pathogens, 2016)
Where a name gives a salt, the structure may show the parent alone.

Tests used:
[1] = target: T1, RPS14-MDM2 (Homo sapiens, UniProt P62263); experiment: Co-immunoprecipitation RPS14-MDM2; type: cell-based; settings: emetine 75 nM, infected high-density cells, 24 hpi, MG132
T1 construct: endogenous in cells; host or cells: HFFs (ATCC CRL-2088), infected with HCMV Towne, MG132-treated
Experimental: Non-infected, infected or emetine-treated HFFs were treated with MG132 (10 μM) for 12h. Cells were harvested after 24 hpi and lysed with IP buffer containing 150 mM NaCl, 50mM Tris pH 7.5, 2 mM EDTA, 0.5% TritonX-100 and 0.5% NP-40-40. 1 mg of lysate was precleared with bead slurry for 30 min. The precleared lysates were incubated with anti-MDM2 (2 μg) antibody overnight. The antibody complexes were isolated using protein A/G beads (Santa Cruz), washed three times with 50% IP buffer. The immunoprecipitate-protein A/G beads were boiled in SDS sample buffer, and the supernatant was analyzed on SDS-PAGE gels after immunoblotting as described previously. 1% of the cell lysate used for IP was loaded on gels as ‘Input’. Confirmatory reverse IPs were performed as described in each experiment. Isotype control antibodies included: rabbit IgG polyclonal, mouse IgG2a kappa and mouse IgG2b kappa monoclonal (Abcam). Mouse monoclonal RPS19 antibody (Abcam) served as an additional negative control for the IPs. Densitometry analysis was performed to determine relative ratio of immunoprecipitated protein to its input level.

[2] = test system: p21; experiment: qRT-PCR for p21; type: cell-based, human; settings: emetine 75 nM, infected high-density cells
Experimental: Total RNA was isolated from cultured cells using RNeasy Mini kit (Qiagen). RevertAid first strand cDNA synthesis kit (Fermentas life sciences, Cromwell Park, MD) was used to synthesize first strand cDNA from total RNA using oligo-dT primers. Negative RT reactions were included to ensure the specificity of qRT-PCR reactions. Synthesis of first strand cDNA from mRNA template was carried out at 42°C for 1 h. Quantitative RT-PCR was performed in triplicates using specific primers for p21 (F: 5’ […] 3’; R: 5’ […] 3’) and SYBR green (Fermentas life science) with two-step cycling protocol (95°C for 15 s, 60°C for 1 min). GAPDH (F: 5’ […] 3’; R: 5’ […] 3’) was used as the internal control.

[3] = test system: HCMV Towne; experiment: Add-on and removal studies, plaque titration; type: cell-based, Human Cytomegalovirus; settings: supernatants at 72 hpi
Experimental: For time-of-removal studies, medium containing the compounds was removed at 0, 6, 12, 24, 36 and 48 hpi, cells were washed three times with PBS, and drug-free medium was added. Culture supernatants were collected at 72 hpi and titration of infectious virus was performed after 14 days by plaque assay.

[4] = in vivo; parameters: species or system BALB/c mice
Experimental: The dosing solution was prepared in saline with a dosing volume of 10 mL/kg. Blood and tissue samples including liver, lung and spleen were collected at 0, 0.083, 0.25, 0.5, 0.75, 1, 2, 3, 4, 7, 24, 30, 48, 72 and 96 hr. […] Pharmacokinetic parameters (Cmax, Tmax, AUC and t1/2) were calculated with a non-compartmental approach using the Pharsight WinNonLin software (Ver. 6.4). The experimental procedures were approved by the Animal Care and Use Committee of Division of Veterinary Resources, NIH.

[5] = 0.083 h after single oral 0.1 mg/kg, BALB/c mice
[6] = 0.25 h after single oral 0.1 mg/kg, BALB/c mice
[7] = 0.5 h after single oral 0.1 mg/kg, BALB/c mice
[8] = 1 h after single oral 0.1 mg/kg, BALB/c mice
[9] = 2 h after single oral 0.1 mg/kg, BALB/c mice
[10] = 3 h after single oral 0.1 mg/kg, BALB/c mice
[11] = 4 h after single oral 0.1 mg/kg, BALB/c mice
[12] = 7 h after single oral 0.1 mg/kg, BALB/c mice
[13] = 24 h after single oral 0.1 mg/kg, BALB/c mice
[14] = 30 h after single oral 0.1 mg/kg, BALB/c mice
[15] = 48 h after single oral 0.1 mg/kg, BALB/c mice
[16] = 72 h after single oral 0.1 mg/kg, BALB/c mice
[17] = 96 h after single oral 0.1 mg/kg, BALB/c mice

CC[C@H]1CN2CCc3cc(OC)c(OC)cc3[C@@H]2C[C@@H]1C[C@H]1NCCc2cc(OC)c(OC)cc21 [emetine, emetine dihydrochloride hydrate]
interaction between RPS14 and MDM2 [1]: strongly induced the interaction between RPS14 and MDM2 | increase in p21 mRNA ([2]; 24 hpi): 5.4 fold | increase in p21 mRNA ([2]; 72 hpi): 6.7 fold | anti-HCMV activity when added after infection (add-on) ([3]; addition after 12 h): loss of activity against HCMV | time compound is required to fully inhibit HCMV (removal assay) ([3]; plaque assay): at least 24 h | LIVER Conc. [4, 5]: 0.007 µmol/kg | LIVER Mean Conc. [4, 5]: 3.59 ng/g | LUNG Conc. [4, 5]: 0.002 µmol/kg | LUNG Mean Conc. [4, 5]: 1.07 ng/g | LIVER Conc. [4, 6]: 0.013 µmol/kg | LIVER Mean Conc. [4, 6]: 6.18 ng/g | LUNG Conc. [4, 6]: 0.003 µmol/kg | LUNG Mean Conc. [4, 6]: 1.49 ng/g | LIVER Conc. [4, 7]: 0.037 µmol/kg | LIVER Mean Conc. [4, 7]: 17.7 ng/g | LUNG Conc. [4, 7]: 0.006 µmol/kg | LUNG Mean Conc. [4, 7]: 2.90 ng/g | SPLEEN Conc. [4, 7]: 0.002 µmol/kg | SPLEEN Mean Conc. [4, 7]: 1.12 ng/g | LIVER Conc. [4, 8]: 0.117 µmol/kg | LIVER Mean Conc. [4, 8]: 56.5 ng/g | LUNG Conc. [4, 8]: 0.017 µmol/kg | LUNG Mean Conc. [4, 8]: 8.11 ng/g | SPLEEN Conc. [4, 8]: 0.012 µmol/kg | SPLEEN Mean Conc. [4, 8]: 5.60 ng/g | LIVER Conc. [4, 9]: 0.192 µmol/kg | LIVER Mean Conc. [4, 9]: 92.2 ng/g | LUNG Conc. [4, 9]: 0.020 µmol/kg | LUNG Mean Conc. [4, 9]: 9.70 ng/g | SPLEEN Conc. [4, 9]: 0.018 µmol/kg | SPLEEN Mean Conc. [4, 9]: 8.81 ng/g | LIVER Conc. [4, 10]: 0.316 µmol/kg | LIVER Mean Conc. [4, 10]: 152 ng/g | LUNG Conc. [4, 10]: 0.037 µmol/kg | LUNG Mean Conc. [4, 10]: 17.9 ng/g | SPLEEN Conc. [4, 10]: 0.032 µmol/kg | SPLEEN Mean Conc. [4, 10]: 15.3 ng/g | LIVER Conc. [4, 11]: 0.437 µmol/kg | LIVER Mean Conc. [4, 11]: 210 ng/g | LUNG Conc. [4, 11]: 0.071 µmol/kg | LUNG Mean Conc. [4, 11]: 34.2 ng/g | SPLEEN Conc. [4, 11]: 0.064 µmol/kg | SPLEEN Mean Conc. [4, 11]: 30.6 ng/g | LIVER Conc. [4, 12]: 0.527 µmol/kg | LIVER Mean Conc. [4, 12]: 253 ng/g | LUNG Conc. [4, 12]: 0.097 µmol/kg | LUNG Mean Conc. [4, 12]: 46.6 ng/g | SPLEEN Conc. [4, 12]: 0.093 µmol/kg | SPLEEN Mean Conc. [4, 12]: 44.9 ng/g | LIVER Conc. [4, 13]: 0.193 µmol/kg | LIVER Mean Conc. [4, 13]: 93.0 ng/g | LUNG Conc. [4, 13]: 0.138 µmol/kg | LUNG Mean Conc. [4, 13]: 66.1 ng/g | SPLEEN Conc. [4, 13]: 0.175 µmol/kg | SPLEEN Mean Conc. [4, 13]: 84.3 ng/g | LIVER Conc. [4, 14]: 0.174 µmol/kg | LIVER Mean Conc. [4, 14]: 83.6 ng/g | LUNG Conc. [4, 14]: 0.133 µmol/kg | LUNG Mean Conc. [4, 14]: 64.1 ng/g | SPLEEN Conc. [4, 14]: 0.193 µmol/kg | SPLEEN Mean Conc. [4, 14]: 92.5 ng/g | LIVER Conc. [4, 15]: 0.073 µmol/kg | LIVER Mean Conc. [4, 15]: 34.9 ng/g | LUNG Conc. [4, 15]: 0.078 µmol/kg | LUNG Mean Conc. [4, 15]: 37.4 ng/g | SPLEEN Conc. [4, 15]: 0.139 µmol/kg | SPLEEN Mean Conc. [4, 15]: 66.6 ng/g | LIVER Conc. [4, 16]: 0.044 µmol/kg | LIVER Mean Conc. [4, 16]: 21.2 ng/g | LUNG Conc. [4, 16]: 0.049 µmol/kg | LUNG Mean Conc. [4, 16]: 23.7 ng/g | SPLEEN Conc. [4, 16]: 0.094 µmol/kg | SPLEEN Mean Conc. [4, 16]: 45.2 ng/g | LIVER Conc. [4, 17]: 0.028 µmol/kg | LIVER Mean Conc. [4, 17]: 13.5 ng/g | LUNG Conc. [4, 17]: 0.030 µmol/kg | LUNG Mean Conc. [4, 17]: 14.3 ng/g | SPLEEN Conc. [4, 17]: 0.058 µmol/kg | SPLEEN Mean Conc. [4, 17]: 28.1 ng/g | half-life ([4]; male, mouse, in vivo, single oral 0.1 mg/kg, BALB/c mice, read-out: calculated half-life (converted)): 35 h | plasma concentrations ([4]; single oral 0.1 mg/kg, male BALB/c mice, UPLC-MS/MS): mostly below the level limit of quantification
